Experimental data published in patent publication US20100145901A1, “MATRIX MARKER MODEL AND METHODS FOR ASSESSING AND TREATING ARTHRITIS AND RELATED DISORDERS” (priority 2007, published 2010).

How the values were obtained:
RA patients = conditions: 25 studies, 3907 RA patients; cited from earlier work
patients with active RA = assay: ASPIRE trial: joint damage progression (modified Sharp/van der Heijde score) baseline to week 54; format: in vivo, human
Procedure: Details on the patient population and study protocol on which we have tested our model have been presented previously (StClair et al. Arthritis Rheum 2004; 50:3432-3443). […] In addition, patients had >=10 swollen joints (66 joint count), >=12 tender joints (68 joint count), and >=1 of the following: rheumatoid factor (RF) positivity, radiographic erosions of the hands or feet, or serum C-reactive protein (CRP) level >=2.0 mg/dl.
The institutional review boards at participating sites approved the study protocol. All patients provided written informed consent. Patients were randomized in a 4:5:5 ratio to receive placebo, infliximab 3 mg/kg, or infliximab 6 mg/kg at weeks 0, 2, and 6, and then every 8 weeks through week 46. All patients were treated with oral MTX starting at 7.5 mg/week at week 0; MTX doses were increased by 2.5 mg every 1-2 weeks to reach 15 mg/week by week 4 and 20 mg/week by week 8. MTX was administered to all patients through week 54. Patients also received folic acid >=5 mg/week.
The American College of Rheumatology core set variables (Felson A&R 1993), including numbers of tender and swollen joints, were documented at each visit. The 28 joint count (Prevoo A&R 1995) was used in the creation of our model as it is more appropriate and more frequently used in daily clinical practice as compared to the 66/68 count. The Westergren method (Koepke 1988) was used to determine erythrocyte sedimentation rate (ESR) at weeks 0, 6, 30, and 54; normal ESR levels were <=20 mm/hour for women and <=15 mm/hour for men. CRP levels (normal <0.8 mg/dl) were measured by nephelometry (Stites 1997) at screening and each visit thereafter. (If possible RF testing should be specified as different IG's tested for have different correlation with radiological progression. Radiographs of the hands and feet were obtained within 4 weeks of receiving the first dose of the study drug, at weeks 30 and 54, and upon use of a protocol-prohibited medication or study termination, as applicable. Joint damage was assessed by change in the modified Sharp/van der Heijde score (SHS) (vander Heijde Lancet 1989) from baseline to week 54.
Of the 1,049 patients enrolled in the ASPIRE trial, 1,004 were prospectively identified as eligible for inclusion in the efficacy analyses prior to unblinding (StClair A&R 2004). […] Summary statistics of median, mean, and interquartile ranges are presented for continuous variables. Spearman correlation analyses were performed to evaluate the association between baseline covariates and changes in radiographic scores. Tests for statistical significance were performed using analysis of variance on van der Waerden normal scores. For categorical response parameters, treatment group comparisons were made using the chi-square test. […]

Molecule: Cc1oncc1C(=O)Nc1ccc(C(F)(F)F)cc1 [leflunomide]
- change in erosion scores versus placebo (RA patients): statistically better than placebo

Molecule: infliximab
- change in erosion scores versus placebo (RA patients): statistically better than placebo
- rank versus other agents in preventing radiological progression (RA patients): superior to the last five agents

Molecule: CC(=O)OC[C@H]1O[C@@H]([S-])[C@H](OC(C)=O)[C@@H](OC(C)=O)[C@@H]1OC(C)=O.CCP(CC)CC.[Au+] [auranofin]
- change in erosion scores versus placebo (RA patients): statistically better than placebo

Molecule: interleukin 1 receptor antagonist: interleukin 1 receptor antagonist
- change in erosion scores versus placebo (RA patients): statistically better than placebo

Molecule: O=C(O)c1cc(/N=N/c2ccc(S(=O)(=O)Nc3ccccn3)cc2)ccc1O [SSZ, sulphasalazine]
- change in erosion scores versus placebo (RA patients): statistically better than placebo

Molecule: CN(Cc1cnc2nc(N)nc(N)c2n1)c1ccc(C(=O)N[C@@H](CCC(=O)O)C(=O)O)cc1 [MTX, methotrexate]
- change in the SHS from baseline to week 54 (mean+/−SD) (patients with active RA; MTX alone): 3.7+/−9.6
- patients showing an increase in radiographic score (patients with active RA; baseline to week 54): 61%
- patients showing an increase of radiographic score of at least 5 SHS units (patients with active RA; baseline to week 54): 23%
- patients with SHS of 0 at baseline who did not progress (patients with active RA; baseline to week 54): 63%
- change in erosion scores versus placebo (RA patients): statistically better than placebo
